Article PMC9907720 (Antiviral research, 2022)
Like-named read-outs stand apart in the source and are kept apart here.

What was measured:
[1] = tested on: CMV IE1 protein; assay: Western blot of IE1 protein in AD169^R-infected NHDFs; assay type: cell-based, Human cytomegalovirus; conditions: AD169^R-infected NHDF, 24hpi; MBX-4992 1-10 μM, ganciclovir 5 μM, convallotoxin 0.01 μM
[2] = tested on: dengue; assay: Other viral pathogens, dengue; assay type: cell-based; conditions: data not shown
[3] = tested on: hepatitis B; assay: Other viral pathogens, hepatitis B; assay type: cell-based; conditions: data not shown
[4] = tested on: HHV-6B Z29; assay: Herpes virus panel, HHV-6B qPCR; assay type: cell-based, Human herpes virus 6B; conditions: HHV-6B Z29, MOLT-3, qPCR
[5] = tested on: AD169^R; assay: Virus pre-incubation wash / no wash infection assay; assay type: cell-based, Human cytomegalovirus; conditions: MBX-4992 pre-incubated with virus, 24hpi
[6] = tested on: HCMV GDGr K17 (GCV^R); assay type: cell-based, Human cytomegalovirus; conditions: HFF, CPE
[7] = tested on: HSV-1 E-377; assay: Herpes virus panel, HSV-1 CPE; assay type: cell-based, Herpes simplex virus 1; conditions: HSV-1 E-377, HFF
[8] = tested on: respiratory syncytial; assay: Other viral pathogens, respiratory syncytial virus; assay type: cell-based; conditions: data not shown
[9] = tested on: yellow fever; assay type: cell-based
[10] = tested on: influenza A H1N1; assay: Other viral pathogens, influenza A H1N1; assay type: cell-based; conditions: data not shown
[11] = tested on: HHV-8 BCBL-1; assay: Herpes virus panel, HHV-8 qPCR; assay type: cell-based, Human herpes virus 8; conditions: HHV-8 BCBL-1, BCBL-1 cells
[12] = tested on: EBV Akata; assay: Herpes virus panel, EBV qPCR; assay type: cell-based, Epstein-Barr virus; conditions: Akata cells
[13] = tested on: AD169^R and TB40/E strains; assay: Infectivity assay, AD169^R and TB40/E in NHDF and ARPE-19; assay type: cell-based, Human cytomegalovirus; conditions: read-out: IC50 values (range), NHDF and ARPE-19 cells, 24hpi
[14] = tested on: AD169^R; assay: Cell pre-treatment wash / no wash infection assay; assay type: cell-based, Human cytomegalovirus; conditions: cells pre-treated, AD169^R 30 mins at 4°C; MBX-4992 10μM, heparin 50μg/ml; 24hpi
[15] = tested on: MCMV Smith; assay: Herpes virus panel, MCMV qPCR; assay type: cell-based, Murine cytomegalovirus; conditions: MEF
[16] = tested on: Zika virus; assay: Other viral pathogens, Zika virus; assay type: cell-based; conditions: data not shown
[17] = tested on: HSV-2 G; assay: Herpes virus panel, HSV-2 CPE; assay type: cell-based, Herpes simplex virus 2; conditions: HFF
[18] = tested on: GpCMV 22122; assay: Herpes virus panel, GpCMV qPCR; assay type: cell-based, Guinea pig cytomegalovirus; conditions: GpCMV 22122, GP Lung cells
[19] = tested on: BCBL-1; conditions: BCBL-1 cells, HHV-8 assay
[20] = tested on: GP Lung; conditions: GP Lung cells, GpCMV assay
[21] = tested on: Akata; conditions: Akata cells, EBV assay
[22] = tested on: MOLT-3; conditions: MOLT-3, HHV-6B assay
[23] = tested on: HFF
[24] = tested on: MEF; conditions: MCMV assay
[25] = tested on: HCMV AD169; assay: Herpes virus panel, HCMV AD169 CPE; assay type: cell-based, Human cytomegalovirus; conditions: HCMV AD169, HFF
[26] = tested on: VZV Ellen; assay: Herpes virus panel, VZV CPE; assay type: cell-based, Varicella-Zoster virus; conditions: HFF
[27] = tested on: AD169^IE2-YFP; assay: High-content screening / dose response assay, AD169^IE2-YFP infection of HFF; assay type: cell-based, Human cytomegalovirus; conditions: read-out: anti-CMV activity IC50, secondary validation assays
[28] = tested on: AD169^R; assay: Infectivity assay, AD169^R infection of ARPE-19; assay type: cell-based, Human cytomegalovirus; conditions: AD169^R-infected ARPE-19, 24hpi
[29] = tested on: TB40/E; assay: Infectivity assay, TB40/E infection of NHDF; assay type: cell-based, Human cytomegalovirus; conditions: TB40/E-infected NHDF, 24hpi
[30] = tested on: TB40/E; assay: Infectivity assay, TB40/E infection of ARPE-19; assay type: cell-based, Human cytomegalovirus; conditions: TB40/E-infected ARPE-19, 24hpi
[31] = tested on: AD169^R; assay: Infectivity assay, AD169^R infection of NHDF; assay type: cell-based, Human cytomegalovirus; conditions: AD169^R-infected NHDF, 24hpi

Nc1nc(O)c2ncn(COC(CO)CO)c2n1 [GCV, ganciclovir]
IE1 expression (Western blot) [1]: did not impact IE1 expression

Cc1nc(Nc2ccc(NC(=O)c3ccco3)cc2)cc(N2CCCC2)n1 [MBX-4992]
antiviral activity [2]: did not exhibit activity
IE1 expression (Western blot) [1]: decrease in IE1 expression
antiviral activity [3]: did not exhibit activity
IC50 [4]: 43.7 µM
decrease of virus infection, virus pre-incubated then washed [5]: ~ 25%
IC50 [6]: 1.8 µM
IC50 [7]: > 30 µM
antiviral activity [8]: did not exhibit activity
antiviral activity [9]: did not exhibit activity
antiviral activity [10]: did not exhibit activity
IC50 [11]: 10 µM
IC50 [12]: 30.9 µM
IC50 [13]: 1.9 to 4.8 µM
virus infection, compound present during infection [14]: significantly inhibited virus during infection
IC50 [15]: 4.5 µM
antiviral activity [16]: did not exhibit activity
IC50 [17]: > 150 µM
IC50 [18]: > 30 µM
CC50 [19]: > 100 µM
CC50 [20]: 119 µM
CC50 [21]: > 100 µM
CC50 [22]: > 100 µM
CC50 ([23]; HCMV AD169 assay): > 150 µM
CC50 ([23]; HSV-1 assay): 60.6 µM
CC50 ([23]; HSV-2 assay): > 150 µM
CC50 ([23]; VZV assay): 139 µM
CC50 [24]: > 150 µM
IC50 [25]: 1.7 µM
IC50 [26]: > 30 µM

Cc1nc(Nc2ccc(NC(=O)c3ccco3)cc2)cc(-n2cccn2)n1 [MBXC-4302]
IC50 [27]: 3.2 µM
IC50 [28]: 5.8 µM
IC50 [29]: ~4.5 µM
IC50 [30]: ~4.5 µM
IC50 [31]: 3 µM

C[C@@H]1O[C@@H](O[C@H]2CC[C@]3(C=O)[C@H]4CC[C@]5(C)[C@@H](C6=CC(=O)OC6)CC[C@]5(O)[C@@H]4CC[C@]3(O)C2)[C@H](O)[C@H](O)[C@H]1O [convallatoxin]
IE1 expression (Western blot) [1]: inhibited IE1 expression

heparin [reference compound]
virus infection, compound present during infection [14]: significantly inhibited virus during infection
